Assay results taken from article PMC5605198, “MELK is not necessary for the proliferation of basal-like breast cancer cells” (eLife, 2017).

Columns and labels:
[1] = target: mTOR (Homo sapiens, UniProt P42345); test: Z’-LYTE enzymatic assay; conditions: Z’-LYTE assay at [ATP]=apparent Km; read-out: Biochemical IC50 mTOR
[2] = target: GSK3A (Homo sapiens, UniProt P49840); test: Z’-LYTE enzymatic assay; conditions: Z’-LYTE assay at [ATP]=apparent Km; read-out: Biochemical IC50 GSK3A
[3] = target: ERK5 (Homo sapiens, UniProt Q13164); test: ICKP radiometric kinase assay; format: biochemical; conditions: read-out: % AR (% kinase activity remaining)
[4] = target: JNK1 (Homo sapiens, UniProt P45983); test: ICKP radiometric kinase assay; format: biochemical; conditions: read-out: % AR (% kinase activity remaining)
[5] = target: JNK2 (Homo sapiens, UniProt P45984); test: ICKP radiometric kinase assay; format: biochemical; conditions: read-out: % AR (% kinase activity remaining)
[6] = target: p38 delta (Homo sapiens, UniProt O15264); test: ICKP radiometric kinase assay; format: biochemical; conditions: read-out: % AR (% kinase activity remaining)
[7] = target: RSK1 (Homo sapiens, UniProt Q15418); test: ICKP radiometric kinase assay; format: biochemical; conditions: read-out: % AR (% kinase activity remaining)
[8] = target: S6K1 (Homo sapiens, UniProt P23443); test: ICKP radiometric kinase assay; format: biochemical; conditions: read-out: % AR (% kinase activity remaining)
[9] = target: PKA (Homo sapiens, UniProt P17612); test: ICKP radiometric kinase assay; format: biochemical; conditions: read-out: % AR (% kinase activity remaining)
[10] = target: PRK2 (Homo sapiens, UniProt Q16513); test: ICKP radiometric kinase assay; format: biochemical; conditions: read-out: % AR (% kinase activity remaining)
[11] = target: PKC gamma (Homo sapiens, UniProt P05129); test: ICKP radiometric kinase assay; format: biochemical; conditions: read-out: % AR (% kinase activity remaining)
[12] = target: PKD1 (Homo sapiens, UniProt Q15139); test: ICKP radiometric kinase assay; format: biochemical; conditions: read-out: % AR (% kinase activity remaining)
[13] = target: STK33 (Homo sapiens, UniProt Q9BYT3); test: ICKP radiometric kinase assay; format: biochemical; conditions: read-out: % AR (% kinase activity remaining)
[14] = target: MNK1 (Homo sapiens, UniProt Q9BUB5); test: ICKP radiometric kinase assay; format: biochemical; conditions: read-out: % AR (% kinase activity remaining)
[15] = target: DAPK1 (Homo sapiens, UniProt P53355); test: ICKP radiometric kinase assay; format: biochemical; conditions: read-out: % AR (% kinase activity remaining)
[16] = target: MARK1 (Homo sapiens, UniProt Q9P0L2); test: ICKP radiometric kinase assay; format: biochemical; conditions: read-out: % AR (% kinase activity remaining)
[17] = target: MARK3 (Homo sapiens, UniProt P27448); test: ICKP radiometric kinase assay; format: biochemical; conditions: read-out: % AR (% kinase activity remaining)
[18] = target: MARK4 (Homo sapiens, UniProt Q96L34); test: ICKP radiometric kinase assay; format: biochemical; conditions: read-out: % AR (% kinase activity remaining)
[19] = target: BRSK1 (Homo sapiens, UniProt Q8TDC3); test: ICKP radiometric kinase assay; format: biochemical; conditions: read-out: % AR (% kinase activity remaining)
[20] = target: MELK (Homo sapiens, UniProt Q14680); test: ICKP radiometric kinase assay; format: biochemical; conditions: for remaining activity at 1 µM: read-out: % AR (% kinase activity remaining)
[21] = target: TTBK2 (Homo sapiens, UniProt Q6IQ55); test: ICKP radiometric kinase assay; format: biochemical; conditions: read-out: % AR (% kinase activity remaining)
[22] = target: TBK1 (Homo sapiens, UniProt Q9UHD2); test: ICKP radiometric kinase assay; format: biochemical; conditions: read-out: % AR (% kinase activity remaining)
[23] = target: PIM2 (Homo sapiens, UniProt Q9P1W9); test: ICKP radiometric kinase assay; format: biochemical; conditions: read-out: % AR (% kinase activity remaining)
[24] = target: EF2K (Homo sapiens, UniProt O00418); test: ICKP radiometric kinase assay; format: biochemical; conditions: read-out: % AR (% kinase activity remaining)
[25] = target: HIPK3 (Homo sapiens, UniProt Q9H422); test: ICKP radiometric kinase assay; format: biochemical; conditions: read-out: % AR (% kinase activity remaining)
[26] = target: CLK2 (Homo sapiens, UniProt P49760); test: ICKP radiometric kinase assay; format: biochemical; conditions: read-out: % AR (% kinase activity remaining)
[27] = target: PAK5 (Homo sapiens, UniProt Q9P286); test: ICKP radiometric kinase assay; format: biochemical; conditions: read-out: % AR (% kinase activity remaining)
[28] = target: PAK6 (Homo sapiens, UniProt Q9NQU5); test: ICKP radiometric kinase assay; format: biochemical; conditions: read-out: % AR (% kinase activity remaining)
[29] = target: MAP4K5 (Homo sapiens, UniProt Q9Y4K4); test: ICKP radiometric kinase assay; format: biochemical; conditions: read-out: % AR (% kinase activity remaining)
[30] = target: MEKK1 (Homo sapiens, UniProt Q13233); test: ICKP radiometric kinase assay; format: biochemical; conditions: read-out: % AR (% kinase activity remaining)
[31] = target: TAO1 (Homo sapiens, UniProt Q7L7X3); test: ICKP radiometric kinase assay; format: biochemical; conditions: read-out: % AR (% kinase activity remaining)
[32] = target: TTK (Homo sapiens, UniProt P33981); test: ICKP radiometric kinase assay; format: biochemical; conditions: read-out: % AR (% kinase activity remaining)
[33] = target: ULK1 (Homo sapiens, UniProt O75385); test: ICKP radiometric kinase assay; format: biochemical; conditions: read-out: % AR (% kinase activity remaining)
[34] = target: ULK2 (Homo sapiens, UniProt Q8IYT8); test: ICKP radiometric kinase assay; format: biochemical; conditions: read-out: % AR (% kinase activity remaining)
[35] = target: ABL (Homo sapiens, UniProt P00519); test: ICKP radiometric kinase assay; format: biochemical; conditions: read-out: % AR (% kinase activity remaining)
[36] = target: BRK (Homo sapiens, UniProt Q13882); test: ICKP radiometric kinase assay; format: biochemical; conditions: read-out: % AR (% kinase activity remaining)
[37] = target: EPH-A2 (Homo sapiens, UniProt P29317); test: ICKP radiometric kinase assay; format: biochemical; conditions: read-out: % AR (% kinase activity remaining)
[38] = target: EPH-A4 (Homo sapiens, UniProt P54764); test: ICKP radiometric kinase assay; format: biochemical; conditions: read-out: % AR (% kinase activity remaining)
[39] = target: EPH-B2 (Homo sapiens, UniProt P29323); test: ICKP radiometric kinase assay; format: biochemical; conditions: read-out: % AR (% kinase activity remaining)
[40] = target: IGF-1R (Homo sapiens, UniProt P08069); test: ICKP radiometric kinase assay; format: biochemical; conditions: read-out: % AR (% kinase activity remaining)
[41] = target: IRR (Homo sapiens, UniProt P14616); test: ICKP radiometric kinase assay; format: biochemical; conditions: read-out: % AR (% kinase activity remaining)
[42] = target: VEGFR1 (Homo sapiens, UniProt P17948); test: ICKP radiometric kinase assay; format: biochemical; conditions: read-out: % AR (% kinase activity remaining)
[43] = test system: MDA-MB-468 (second source); test: Cell proliferation assay (CellTiter-Glo); conditions: Homo sapiens, MDA-MB-468, 168 h, read-out: 7-day antiproliferative IC50

Chain of MELK (Q14680 whole entry): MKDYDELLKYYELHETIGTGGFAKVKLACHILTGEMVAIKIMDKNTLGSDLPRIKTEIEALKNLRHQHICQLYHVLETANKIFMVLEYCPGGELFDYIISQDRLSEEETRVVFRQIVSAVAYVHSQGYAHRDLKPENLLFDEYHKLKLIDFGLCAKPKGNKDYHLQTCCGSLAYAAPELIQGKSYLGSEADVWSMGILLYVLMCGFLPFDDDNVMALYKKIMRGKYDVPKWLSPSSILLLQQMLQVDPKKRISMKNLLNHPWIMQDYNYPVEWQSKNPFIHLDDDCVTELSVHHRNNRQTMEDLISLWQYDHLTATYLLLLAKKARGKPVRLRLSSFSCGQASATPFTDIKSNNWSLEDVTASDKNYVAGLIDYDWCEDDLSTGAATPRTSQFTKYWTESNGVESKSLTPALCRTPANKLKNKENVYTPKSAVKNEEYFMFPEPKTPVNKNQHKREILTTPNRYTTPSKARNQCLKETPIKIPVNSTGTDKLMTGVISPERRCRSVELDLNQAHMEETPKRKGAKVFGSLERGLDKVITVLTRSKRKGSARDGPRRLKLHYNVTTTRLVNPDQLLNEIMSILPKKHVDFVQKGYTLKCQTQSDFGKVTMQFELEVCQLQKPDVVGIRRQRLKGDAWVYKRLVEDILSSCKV
Chain of JNK1 (P45983 whole entry): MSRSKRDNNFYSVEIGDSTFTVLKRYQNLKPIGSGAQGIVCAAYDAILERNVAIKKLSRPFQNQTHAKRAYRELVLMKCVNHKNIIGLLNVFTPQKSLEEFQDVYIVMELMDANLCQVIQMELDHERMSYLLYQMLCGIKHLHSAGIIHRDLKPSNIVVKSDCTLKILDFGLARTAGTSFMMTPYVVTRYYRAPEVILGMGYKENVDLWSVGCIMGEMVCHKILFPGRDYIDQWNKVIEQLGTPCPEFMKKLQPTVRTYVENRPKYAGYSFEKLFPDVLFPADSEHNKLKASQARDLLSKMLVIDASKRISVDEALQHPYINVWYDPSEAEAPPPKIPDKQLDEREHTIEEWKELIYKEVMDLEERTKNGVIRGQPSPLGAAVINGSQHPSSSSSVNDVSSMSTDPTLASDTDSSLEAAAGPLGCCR
Chain of TTBK2 (Q6IQ55 whole entry): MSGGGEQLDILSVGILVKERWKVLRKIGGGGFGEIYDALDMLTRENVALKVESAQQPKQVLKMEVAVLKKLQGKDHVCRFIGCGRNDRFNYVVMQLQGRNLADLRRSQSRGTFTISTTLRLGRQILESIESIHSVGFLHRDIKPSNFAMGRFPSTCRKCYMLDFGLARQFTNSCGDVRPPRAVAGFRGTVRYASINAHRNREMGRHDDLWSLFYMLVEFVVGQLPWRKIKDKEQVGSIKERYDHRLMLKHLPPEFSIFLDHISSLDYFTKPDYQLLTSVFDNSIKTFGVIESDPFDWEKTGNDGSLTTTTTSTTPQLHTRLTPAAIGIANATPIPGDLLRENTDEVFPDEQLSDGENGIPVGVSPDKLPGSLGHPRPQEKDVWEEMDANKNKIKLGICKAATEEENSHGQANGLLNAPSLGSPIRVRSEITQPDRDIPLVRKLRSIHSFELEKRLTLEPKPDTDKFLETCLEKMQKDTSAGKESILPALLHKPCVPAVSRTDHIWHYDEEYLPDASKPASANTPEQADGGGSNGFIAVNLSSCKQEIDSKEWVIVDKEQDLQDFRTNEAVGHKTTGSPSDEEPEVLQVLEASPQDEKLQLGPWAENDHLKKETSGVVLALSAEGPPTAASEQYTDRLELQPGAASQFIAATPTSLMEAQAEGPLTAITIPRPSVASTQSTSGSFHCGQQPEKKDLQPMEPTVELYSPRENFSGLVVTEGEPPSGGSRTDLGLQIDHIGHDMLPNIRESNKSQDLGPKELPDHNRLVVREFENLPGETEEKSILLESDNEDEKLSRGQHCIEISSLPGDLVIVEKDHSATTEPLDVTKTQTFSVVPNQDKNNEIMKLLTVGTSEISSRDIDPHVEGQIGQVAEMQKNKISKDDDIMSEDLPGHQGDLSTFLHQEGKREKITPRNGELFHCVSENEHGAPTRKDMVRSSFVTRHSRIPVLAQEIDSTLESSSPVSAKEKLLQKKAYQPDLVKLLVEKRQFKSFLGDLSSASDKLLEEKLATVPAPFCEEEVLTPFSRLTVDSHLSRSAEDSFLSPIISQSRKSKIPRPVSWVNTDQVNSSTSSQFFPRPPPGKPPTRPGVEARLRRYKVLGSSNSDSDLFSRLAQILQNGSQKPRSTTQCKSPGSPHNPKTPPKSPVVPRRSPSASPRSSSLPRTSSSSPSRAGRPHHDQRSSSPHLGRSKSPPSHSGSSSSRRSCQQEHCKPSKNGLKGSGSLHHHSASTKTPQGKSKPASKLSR
Chain of TBK1 (Q9UHD2 whole entry): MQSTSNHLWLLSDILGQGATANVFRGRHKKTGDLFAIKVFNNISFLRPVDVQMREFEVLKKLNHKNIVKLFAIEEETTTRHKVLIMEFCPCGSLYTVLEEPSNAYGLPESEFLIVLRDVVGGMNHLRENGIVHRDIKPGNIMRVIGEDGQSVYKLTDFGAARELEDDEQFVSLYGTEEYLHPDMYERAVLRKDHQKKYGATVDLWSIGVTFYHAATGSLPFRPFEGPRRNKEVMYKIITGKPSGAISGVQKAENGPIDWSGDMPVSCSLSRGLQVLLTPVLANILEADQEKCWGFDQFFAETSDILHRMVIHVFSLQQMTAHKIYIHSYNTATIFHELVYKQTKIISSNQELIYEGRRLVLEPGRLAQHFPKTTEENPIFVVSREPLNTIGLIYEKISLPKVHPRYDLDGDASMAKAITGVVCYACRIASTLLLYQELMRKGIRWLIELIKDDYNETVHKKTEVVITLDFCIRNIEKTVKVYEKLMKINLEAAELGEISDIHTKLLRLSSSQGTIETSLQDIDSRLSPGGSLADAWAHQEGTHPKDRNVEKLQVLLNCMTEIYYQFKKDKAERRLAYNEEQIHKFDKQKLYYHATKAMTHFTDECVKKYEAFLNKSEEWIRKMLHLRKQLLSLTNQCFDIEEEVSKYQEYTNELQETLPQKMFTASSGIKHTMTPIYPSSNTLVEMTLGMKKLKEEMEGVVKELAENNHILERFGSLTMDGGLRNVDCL
Chain of STK33 (Q9BYT3 whole entry): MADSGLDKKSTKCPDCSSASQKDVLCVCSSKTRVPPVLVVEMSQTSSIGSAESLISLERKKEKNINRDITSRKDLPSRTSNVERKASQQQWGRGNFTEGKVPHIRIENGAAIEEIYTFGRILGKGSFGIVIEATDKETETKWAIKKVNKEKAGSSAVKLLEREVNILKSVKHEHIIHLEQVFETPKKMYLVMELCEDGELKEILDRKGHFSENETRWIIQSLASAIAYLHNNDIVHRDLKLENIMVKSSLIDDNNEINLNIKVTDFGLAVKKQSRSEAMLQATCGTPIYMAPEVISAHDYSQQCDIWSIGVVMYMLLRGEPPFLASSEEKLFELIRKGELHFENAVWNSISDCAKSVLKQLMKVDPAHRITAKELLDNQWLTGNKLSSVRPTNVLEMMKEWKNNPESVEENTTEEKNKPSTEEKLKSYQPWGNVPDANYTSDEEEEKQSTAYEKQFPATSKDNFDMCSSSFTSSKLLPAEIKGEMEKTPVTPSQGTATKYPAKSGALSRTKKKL
Chain of TTK (P33981 whole entry): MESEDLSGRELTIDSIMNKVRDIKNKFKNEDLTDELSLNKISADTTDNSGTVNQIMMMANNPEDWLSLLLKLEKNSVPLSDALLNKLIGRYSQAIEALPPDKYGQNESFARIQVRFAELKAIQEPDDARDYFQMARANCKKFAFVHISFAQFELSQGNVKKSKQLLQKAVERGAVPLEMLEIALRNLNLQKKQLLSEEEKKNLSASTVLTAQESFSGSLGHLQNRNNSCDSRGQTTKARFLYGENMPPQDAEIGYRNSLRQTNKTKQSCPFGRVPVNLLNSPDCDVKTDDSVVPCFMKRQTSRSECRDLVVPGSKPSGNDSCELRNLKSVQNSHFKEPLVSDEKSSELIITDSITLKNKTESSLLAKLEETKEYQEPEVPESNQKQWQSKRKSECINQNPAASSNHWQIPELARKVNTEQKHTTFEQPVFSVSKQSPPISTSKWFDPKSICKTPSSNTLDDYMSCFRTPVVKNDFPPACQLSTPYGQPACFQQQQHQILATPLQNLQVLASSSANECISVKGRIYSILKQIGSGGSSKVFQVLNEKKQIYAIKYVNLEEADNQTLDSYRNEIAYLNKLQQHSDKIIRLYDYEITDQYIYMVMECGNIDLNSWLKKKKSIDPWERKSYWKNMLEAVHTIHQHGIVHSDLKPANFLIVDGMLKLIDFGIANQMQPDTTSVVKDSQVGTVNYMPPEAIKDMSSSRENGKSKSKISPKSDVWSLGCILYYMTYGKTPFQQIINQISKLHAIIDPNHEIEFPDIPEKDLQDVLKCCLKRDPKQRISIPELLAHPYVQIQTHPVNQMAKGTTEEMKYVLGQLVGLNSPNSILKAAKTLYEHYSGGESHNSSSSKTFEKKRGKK
Chain of S6K1 (P23443 whole entry): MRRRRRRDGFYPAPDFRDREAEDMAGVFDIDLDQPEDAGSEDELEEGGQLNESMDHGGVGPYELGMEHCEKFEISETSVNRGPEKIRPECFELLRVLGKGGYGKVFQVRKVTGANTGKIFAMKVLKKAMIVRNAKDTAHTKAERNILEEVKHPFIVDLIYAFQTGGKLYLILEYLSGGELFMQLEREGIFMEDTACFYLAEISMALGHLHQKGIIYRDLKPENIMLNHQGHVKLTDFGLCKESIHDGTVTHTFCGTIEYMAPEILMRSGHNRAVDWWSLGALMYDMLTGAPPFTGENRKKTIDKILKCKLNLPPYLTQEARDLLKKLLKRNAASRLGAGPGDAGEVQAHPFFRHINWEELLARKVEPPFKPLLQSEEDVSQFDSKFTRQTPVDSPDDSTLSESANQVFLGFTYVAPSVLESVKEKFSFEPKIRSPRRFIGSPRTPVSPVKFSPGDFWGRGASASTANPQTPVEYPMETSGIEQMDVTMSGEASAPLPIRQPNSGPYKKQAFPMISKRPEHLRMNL

## CN(C)C[C@H]1CC[C@H](N2C(=O)NCc3cnc4ccc(-c5cc(Cl)c(O)c(Cl)c5)cc4c32)CC1 [HTH-01-091, 9-(3,5-dichloro-4-hydroxyphenyl)-1-(trans-4-((dimethylamino)methyl)cyclohexyl)-3,4-dihydropyrimido[5,4 c]quinolin-2(1H)-one]
[1]
  IC50: 632 nM
[2]
  IC50: 1740 nM
[3]
  remaining activity at 1 µM: 70%
[4]
  remaining activity at 1 µM: 97%
[5]
  remaining activity at 1 µM: 100%
[6]
  remaining activity at 1 µM: 89%
[7]
  remaining activity at 1 µM: 48%
[8]
  remaining activity at 1 µM: 81%
[9]
  remaining activity at 1 µM: 112%
[10]
  remaining activity at 1 µM: 77%
[11]
  remaining activity at 1 µM: 71%
[12]
  remaining activity at 1 µM: 79%
[13]
  remaining activity at 1 µM: 26%
[14]
  remaining activity at 1 µM: 109%
[15]
  remaining activity at 1 µM: 15%
[16]
  remaining activity at 1 µM: 97%
[17]
  remaining activity at 1 µM: 94%
[18]
  remaining activity at 1 µM: 95%
[19]
  remaining activity at 1 µM: 85%
[20]
  remaining activity at 1 µM: 13%
[20]; radioactive filter-binding assay provided by the ICKP, read-out: Enzymatic IC50 MELK
  IC50: 15.3 nM
[21]
  remaining activity at 1 µM: 86%
[22]
  remaining activity at 1 µM: 88%
[23]
  remaining activity at 1 µM: 2%
[24]
  remaining activity at 1 µM: 85%
[25]
  remaining activity at 1 µM: 25%
[26]
  remaining activity at 1 µM: 11%
[27]
  remaining activity at 1 µM: 73%
[28]
  remaining activity at 1 µM: 89%
[29]
  remaining activity at 1 µM: 32%
[30]
  remaining activity at 1 µM: 111%
[31]
  remaining activity at 1 µM: 18%
[32]
  remaining activity at 1 µM: 53%
[33]
  remaining activity at 1 µM: 93%
[34]
  remaining activity at 1 µM: 105%
[35]
  remaining activity at 1 µM: 70%
[36]
  remaining activity at 1 µM: 96%
[37]
  remaining activity at 1 µM: 66%
[38]
  remaining activity at 1 µM: 63%
[39]
  remaining activity at 1 µM: 70%
[40]
  remaining activity at 1 µM: 92%
[41]
  remaining activity at 1 µM: 79%
[42]
  remaining activity at 1 µM: 43%
[43]
  IC50: 10700 nM

## CC(=O)c1cnc2ccc(-c3cc(Cl)c(O)c(Cl)c3)nc2c1N[C@H]1CC[C@H](CN(C)C)CC1 [OTSSP167]
[1]
  IC50: 35.7 nM
[2]
  IC50: 1.6 nM
[3]
  remaining activity at 1 µM: 4%
[4]
  remaining activity at 1 µM: 10%
[5]
  remaining activity at 1 µM: 16%
[6]
  remaining activity at 1 µM: 4%
[7]
  remaining activity at 1 µM: 3%
[8]
  remaining activity at 1 µM: 2%
[9]
  remaining activity at 1 µM: 12%
[10]
  remaining activity at 1 µM: 2%
[11]
  remaining activity at 1 µM: 1%
[12]
  remaining activity at 1 µM: 6%
[13]
  remaining activity at 1 µM: 10%
[14]
  remaining activity at 1 µM: 28%
[15]
  remaining activity at 1 µM: 1%
[16]
  remaining activity at 1 µM: 31%
[17]
  remaining activity at 1 µM: 13%
[18]
  remaining activity at 1 µM: 14%
[19]
  remaining activity at 1 µM: 2%
[20]
  remaining activity at 1 µM: 6%
[21]
  remaining activity at 1 µM: 91%
[22]
  remaining activity at 1 µM: 6%
[23]
  remaining activity at 1 µM: 0%
[24]
  remaining activity at 1 µM: 114%
[25]
  remaining activity at 1 µM: 0%
[26]
  remaining activity at 1 µM: 0%
[27]
  remaining activity at 1 µM: 19%
[28]
  remaining activity at 1 µM: 29%
[29]
  remaining activity at 1 µM: 3%
[30]
  remaining activity at 1 µM: 96%
[31]
  remaining activity at 1 µM: 3%
[32]
  remaining activity at 1 µM: 3%
[33]
  remaining activity at 1 µM: 32%
[34]
  remaining activity at 1 µM: 4%
[35]
  remaining activity at 1 µM: 1%
[36]
  remaining activity at 1 µM: 8%
[37]
  remaining activity at 1 µM: 7%
[38]
  remaining activity at 1 µM: 1%
[39]
  remaining activity at 1 µM: 1%
[40]
  remaining activity at 1 µM: 4%
[41]
  remaining activity at 1 µM: 6%
[42]
  remaining activity at 1 µM: 1%
[43]
  IC50: 33 nM
